What was measured:
[1] = tested on: sodium channel (ENaC), canine bronchial epithelia; test: Sodium channel blocking activity: inhibition of short circuit current (ISC) in airway epithelial monolayers in Ussing chambers; assay type: cell-based; details: potency in canine bronchial epithelia relative to amiloride; Example 48
Procedure: One assay used to assess mechanism of action and/or potency of the compounds of the present invention involves the determination of lumenal drug inhibition of airway epithelial sodium currents measured under short circuit current (ISC) using airway epithelial monolayers mounted in Ussing chambers. Cells obtained from freshly excised human, dog, sheep or rodent airways are seeded onto porous 0.4 micron Snapwell™ Inserts (CoStar), cultured at air-liquid interface (ALI) conditions in hormonally defined media, and assayed for sodium transport activity (ISC) while bathed in Krebs Bicarbonate Ringer (KBR) in Using chambers. All test drug additions are to the lumenal bath with half-log dose addition protocols (from 1×10^−11 M to 3×10^−5 M), and the cumulative change in ISC (inhibition) recorded. All drugs are prepared in dimethyl sulfoxide as stock solutions at a concentration of 1×10^−2 M and stored at −20° C. Eight preparations are typically run in parallel; two preparations per run incorporate amiloride and/or benzamil as positive controls. After the maximal concentration (5×10^−5 M) is administered, the lumenal bath is exchanged three times with fresh drug-free KBR solution, and the resultant ISC measured after each wash for approximately 5 minutes in duration. Reversibility is defined as the percent return to the baseline value for sodium current after the third wash. All data from the voltage clamps are collected via a computer interface and analyzed off-line.
Dose-effect relationships for all compounds are considered and analyzed by the Prism 3.0 program. IC50 values, maximal effective concentrations, and reversibility are calculated and compared to amiloride and benzamil as positive controls.
Amiloride was also tested in this assay as a positive control. The results for the compounds of the present invention are reported as fold-enhancement values relative to amiloride.

melting point: 93 to 96 °C (dec.)
SMILES: Cl.Cl.N=C(NCCCCc1ccc(OCCN(C[C@@H](O)[C@@H](O)CO)C[C@@H](O)[C@@H](O)CO)cc1)NC(=O)c1nc(Cl)c(N)nc1N [drawing 67: O CH2 CH2 NR R^a,c (r18), N-[4-(4-{2-[bis-((2R,3S)-2,3,4-trihydroxybutyl)amino]ethoxy}phenyl)-butyl]-N′-(3,5-diamino-6-chloropyrazine-2-carbonyl)guanidine dihydrochloride]
Fold Amiloride* [1]: 56.0 (1) fold

Source: US10167266B2, “Sodium channel blockers” (Parion Sciences, Inc., priority 2002, dated 2019)
